Measured values reported in patent US20260116867A1, “PROTEOLYSIS TARGETING CHIMERAS FOR HUMAN PREGNANE X RECEPTOR AND FOR DEGRADATION OF GSPT1” (ST. JUDE CHILDREN'S RESEARCH HOSPITAL, priority 2022, published 2026).
Entries after “also recorded” stand apart in the source; their conditions may differ.

Experiments:
GSPT1 = molecular target: T1, GSPT1 (Homo sapiens, UniProt P15170+Q96SW2); experiment: Western blot of GSPT1 protein in SNU—C4 3xFLAG-PXR KI cells; type: cell-based
T1 construct: endogenous in cells
T1 sequence (P15170 1-637 isoform P15170-3): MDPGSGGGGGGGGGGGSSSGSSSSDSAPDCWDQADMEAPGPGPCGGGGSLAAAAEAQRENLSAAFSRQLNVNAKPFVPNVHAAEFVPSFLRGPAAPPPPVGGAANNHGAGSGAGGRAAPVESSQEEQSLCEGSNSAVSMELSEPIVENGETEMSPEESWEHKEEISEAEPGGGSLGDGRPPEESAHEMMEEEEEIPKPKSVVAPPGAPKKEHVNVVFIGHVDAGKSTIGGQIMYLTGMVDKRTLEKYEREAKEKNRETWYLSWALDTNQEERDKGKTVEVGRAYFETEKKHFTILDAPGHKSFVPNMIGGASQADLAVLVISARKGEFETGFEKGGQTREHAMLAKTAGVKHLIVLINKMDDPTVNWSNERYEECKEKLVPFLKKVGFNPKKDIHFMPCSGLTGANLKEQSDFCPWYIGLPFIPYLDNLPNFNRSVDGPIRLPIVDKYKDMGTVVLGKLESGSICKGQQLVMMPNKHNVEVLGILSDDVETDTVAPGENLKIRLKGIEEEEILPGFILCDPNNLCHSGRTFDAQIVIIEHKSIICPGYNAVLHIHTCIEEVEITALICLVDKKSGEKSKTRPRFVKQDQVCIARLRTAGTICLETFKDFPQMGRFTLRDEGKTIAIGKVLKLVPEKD
T1 sequence (Q96SW2 whole entry): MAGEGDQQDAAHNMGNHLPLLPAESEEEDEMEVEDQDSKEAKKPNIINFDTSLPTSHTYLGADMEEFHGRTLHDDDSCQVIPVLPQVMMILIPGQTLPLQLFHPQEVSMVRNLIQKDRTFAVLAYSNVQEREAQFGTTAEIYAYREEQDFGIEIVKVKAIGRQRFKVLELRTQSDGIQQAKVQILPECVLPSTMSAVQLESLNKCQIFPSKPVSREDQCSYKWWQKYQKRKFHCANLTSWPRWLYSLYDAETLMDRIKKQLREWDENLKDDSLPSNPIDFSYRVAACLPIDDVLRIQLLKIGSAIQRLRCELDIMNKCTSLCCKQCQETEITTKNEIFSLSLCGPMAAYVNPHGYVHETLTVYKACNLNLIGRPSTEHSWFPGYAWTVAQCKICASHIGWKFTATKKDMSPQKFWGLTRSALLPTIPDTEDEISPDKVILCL
T1 sequence (Q16531 whole entry partner): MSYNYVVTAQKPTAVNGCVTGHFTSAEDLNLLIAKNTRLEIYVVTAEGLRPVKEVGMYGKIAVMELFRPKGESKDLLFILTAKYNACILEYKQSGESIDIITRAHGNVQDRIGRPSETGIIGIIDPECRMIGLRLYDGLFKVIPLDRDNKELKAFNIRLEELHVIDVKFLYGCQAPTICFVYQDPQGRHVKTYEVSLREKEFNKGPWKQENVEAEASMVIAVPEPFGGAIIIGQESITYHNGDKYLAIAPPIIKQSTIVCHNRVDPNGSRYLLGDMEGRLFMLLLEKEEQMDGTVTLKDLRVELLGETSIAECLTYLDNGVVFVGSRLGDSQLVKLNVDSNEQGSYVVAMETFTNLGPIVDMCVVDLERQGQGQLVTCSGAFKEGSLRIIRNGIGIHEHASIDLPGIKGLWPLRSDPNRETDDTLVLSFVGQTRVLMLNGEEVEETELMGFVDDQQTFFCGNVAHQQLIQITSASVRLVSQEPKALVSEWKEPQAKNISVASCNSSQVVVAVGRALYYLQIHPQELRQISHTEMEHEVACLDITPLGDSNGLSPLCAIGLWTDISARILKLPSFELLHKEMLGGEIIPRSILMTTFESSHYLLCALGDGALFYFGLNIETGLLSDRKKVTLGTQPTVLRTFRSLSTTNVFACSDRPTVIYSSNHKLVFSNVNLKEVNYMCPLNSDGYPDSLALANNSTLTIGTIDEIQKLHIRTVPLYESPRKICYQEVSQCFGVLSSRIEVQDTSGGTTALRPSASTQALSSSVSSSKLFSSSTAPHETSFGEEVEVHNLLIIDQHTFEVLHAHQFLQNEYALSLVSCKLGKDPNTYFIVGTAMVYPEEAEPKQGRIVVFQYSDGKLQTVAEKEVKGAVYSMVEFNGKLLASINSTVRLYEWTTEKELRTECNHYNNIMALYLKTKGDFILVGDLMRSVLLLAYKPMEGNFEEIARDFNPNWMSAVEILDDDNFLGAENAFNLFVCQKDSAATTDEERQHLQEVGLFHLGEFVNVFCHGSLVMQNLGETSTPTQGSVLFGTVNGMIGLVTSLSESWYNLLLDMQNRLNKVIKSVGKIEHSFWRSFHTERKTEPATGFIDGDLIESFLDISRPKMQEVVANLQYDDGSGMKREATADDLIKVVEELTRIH
Procedure: (§1) The following day, DMSO or compounds were added to result in 0.5% DMSO and the indicated compound concentrations, and cells were incubated for the indicated time points. Cells were lysed and subjected to western blotting as above using antibodies against FLAG (Sigma-Aldrich, cat. #F3165, 1:2,000 dilution), GSPT1 (Abcam, cat. #ab126090, 1:4,000 dilution), and R-Actin (Cell Signaling Technology, cat. #4967, 1:2,000 dilution).

[1] = Cytotoxicity assay (CellTiter-Glo, 72 h); type: cell-based, human; conditions: human, SNU-C4 3xFLAG-PXR KI cells; read-out: half maximal cytotoxic concentration (CC50)
Procedure: (§2) The indicated cells (2.5×10^3/well in 40 μL RPMI with 10% FBS) were plated in the 384-well plates, resulting in 0.5% DMSO and the indicated concentrations of chemicals. After 72 h compound treatment, the CellTiter-Glo Luminescent Cell Viability Assay (Promega) and an EnVision microplate reader were used to assess cytotoxicity. Wells containing DMSO alone or 10 μM staurosporine served as negative and positive controls, respectively. The percent cell viability for each well was calculated using equation 1: […]

[2] = tested on: SNU—C4 3xFLAG-PXR KI cells; experiment: Cytotoxicity assay (CellTiter-Glo, 72 h); type: cell-based, human; conditions: SNU—C4 3xFLAG-PXR KI cells
Procedure: as §2

PXR [3] = molecular target: T2, PXR (Homo sapiens, UniProt O75469); experiment: cell-based hPXR inverse agonistic assay
T2 sequence (O75469 1-434): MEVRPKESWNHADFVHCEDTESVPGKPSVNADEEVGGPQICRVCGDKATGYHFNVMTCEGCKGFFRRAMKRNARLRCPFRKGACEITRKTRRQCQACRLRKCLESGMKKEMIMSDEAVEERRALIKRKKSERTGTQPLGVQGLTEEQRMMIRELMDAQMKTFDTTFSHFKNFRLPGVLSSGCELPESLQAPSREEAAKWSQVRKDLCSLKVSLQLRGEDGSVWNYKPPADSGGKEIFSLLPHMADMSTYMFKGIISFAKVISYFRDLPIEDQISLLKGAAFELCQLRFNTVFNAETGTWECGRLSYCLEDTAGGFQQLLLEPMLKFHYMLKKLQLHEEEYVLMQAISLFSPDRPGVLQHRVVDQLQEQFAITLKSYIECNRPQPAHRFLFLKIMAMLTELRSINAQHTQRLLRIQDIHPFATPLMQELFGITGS

PXR [4] = molecular target: T2, PXR; experiment: cell-based hPXR antagonistic assay
HiBiT-FKBP12^F36V-PXR = molecular target: T3, HiBiT-FKBP12^F36V-PXR (Homo sapiens, UniProt O75469+P62942, F37V); experiment: HiBiT assay for degradation of overexpressed protein in HepG2 cells; type: cell-based; conditions: HepG2, HiBiT-FKBP12^F36V-PXR, 24 h, FIG. 4A
T3 construct: expressed in transfected cells; host or cells: HepG2 cells (transient, Lipofectamine 3000)
T3 sequence (P62942+O75469 fused P62942:F37V): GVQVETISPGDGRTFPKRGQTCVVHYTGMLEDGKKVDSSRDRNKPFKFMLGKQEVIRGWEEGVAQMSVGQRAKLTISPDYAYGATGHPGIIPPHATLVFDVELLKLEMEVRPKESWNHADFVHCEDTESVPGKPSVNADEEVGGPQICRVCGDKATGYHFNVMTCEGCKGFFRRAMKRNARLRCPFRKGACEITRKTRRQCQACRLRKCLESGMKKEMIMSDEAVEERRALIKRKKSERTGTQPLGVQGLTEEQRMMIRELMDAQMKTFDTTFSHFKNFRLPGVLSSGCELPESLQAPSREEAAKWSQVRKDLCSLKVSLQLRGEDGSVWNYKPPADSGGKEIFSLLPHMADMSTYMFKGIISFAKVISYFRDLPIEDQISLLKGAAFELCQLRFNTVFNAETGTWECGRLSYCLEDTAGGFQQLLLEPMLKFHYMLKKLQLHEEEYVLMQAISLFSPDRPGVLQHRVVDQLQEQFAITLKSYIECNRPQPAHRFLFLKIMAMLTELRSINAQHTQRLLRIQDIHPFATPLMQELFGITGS
T3 sequence (Q96SW2 whole entry partner): as the sequence (Q96SW2 whole entry) above
Procedure: HepG2 cells (5×10^6 cells/dish) were plated in tissue culture-treated 10 cm dishes in 10 mL EMEM with 10% FBS. The next day, cells were transfected with 5 μg pcDNA3-HiBiT-FKBP^F36V-2xHA-PXR and either 5 μg pcDNA3 vector or 5 μg pcDNA3-HA-CRBN using Lipofectamine 3000 (Thermo Fisher Scientific). After 24 h, cells were trypsinized, resuspended in assay media, and plated in white tissue culture-treated 384-well plates (1.5×10^4 cells/well in 25 μL medium). […] The plates were incubated for 24 h, and the Nano-Glo HiBiT Lytic Detection System (Promega) and an EnVision microplate reader were used to measure HiBiT signal. Results are reported as fold change relative to DMSO control cells.
To establish a method for discovery of PXR degraders in the absence of a known PXR-degrading control, the degradation tag (dTAG) system was used. With this method, a protein of interest (PXR) is fused to a cytosolic prolyl isomerase, FKBP12, with Phe36 mutated to Val (FKBP12^F36V) (FIG. 2A). A PROTAC molecule, dTAG-13 (FIG. 2B), is then used to induce degradation of the fusion protein through recruitment of the CUL4-RBX1-DDB1-CRBN (CRL4^CRBN) E3 ubiquitin ligase, without affecting the cellular FKBP12 protein. An HA tag was added for western blot detection, and a HiBiT tag was fused to the N-terminus to allow high-throughput plate-based quantification of HiBiT-FKBP12^F36V-PXR protein levels (FIG. 2A). […] This was also observed when the HA tag was detected by western blot (FIG. 2D). The HiBiT detection was more sensitive to protein level changes than western blot, and, importantly, overexpression of CRBN was required to achieve dTAG-13-mediated degradation of the overexpressed HiBiT-FKBP12^F36V-PXR protein.

PXR [5] = molecular target: T2, PXR; experiment: Western blot of endogenous 3xFLAG-PXR protein in SNU—C4 3xFLAG-PXR KI cells; type: cell-based; parameters: To assess SJPYT-195 activity against endogenous PXR, CRISPR-Cas9 was used; endogenous in cells
Procedure: as §1

For `COc1ccc(OC)c(-n2nnc(C(=O)Nc3cc(Oc4cccc5c4C(=O)N(C4CCC(=O)NC4=O)C5=O)cc(C(C)(C)C)c3)c2C)c1` (stereo not drawn) [Compound M4, N-(3-(tert-butyl)-5-((2-(2,6-dioxopiperidin-3-yl)-1,3-dioxoisoindolin-4-yl)oxy)phenyl)-1-(2,5-dimethoxyphenyl)-5-methyl-1H-1,2,3-triazole-4-carboxamide], the “GSPT1 Loss at 10 μM (% ± SD)” value (GSPT1; 10 μM compound, calculated from western blots FIG. 9A) was 100 ± 0.1%, the “activity on GSPT1, fold lower than that of CC-885” value (GSPT1; western blot, FIG. 6D-E) was ~100 fold and the “GSPT1 degradation (in words)” value (GSPT1; western blot, SNU—C4 3xFLAG-PXR KI cells, listed as SJPYT-195) was “deplete GSPT1 at concentrations much lower than those required to reduce PXR; also recorded: most potent inducer of GSPT1 degradation”. The CC50 at 72 h [1] was 440 ± 80 nM, the “fold difference in CC50 values (CC-885 vs SJPYT-195)” value [2] was 133 fold and the inhibition at 10 µM (PXR [3]; read-out: Inverse agonist (% inhibition at 10 μM)) was 133%. It also gave an IC50 (PXR [3]; read-out: Inverse agonist (IC50/μM)) of 0.18 ± 0.055 µM, an inhibition at 10 µM (PXR [4]; read-out: Antagonist (% inhibition at 10 μM)) of 96% and an IC50 (PXR [4]; read-out: Antagonist (IC50/μM)) of 0.94 ± 0.2 µM. For the same molecule, the “HiBiT signal (screen of PXR ligand-CRBN ligand compounds)” value (HiBiT-FKBP12^F36V-PXR) was “reduced HiBiT signal”, the “reduction of PXR protein” value (PXR [5]; 5 μM, 12 h) was ~50% and the “maximum degradation efficacy (DNax) of endogenous PXR protein” value (PXR [5]; SNU—C4 3xFLAG-PXR KI cells, FIG. 4B) was 85% ±1. The DC50 (PXR [5]; SNU—C4 3xFLAG-PXR KI cells, FIG. 4B, read-out: half maximal degradation concentration (DC50) of endogenous PXR protein) was 310 ± 130 nM, the “kinetics of PXR protein decrease” value (PXR [5]; time-course, FIG. 5A-B) was “quite slow” and the “PXR protein level (in words)” value (PXR [5]; western blot, SNU—C4 3xFLAG-PXR KI cells) was “reduced PXR to a greater extent than CC-885”.
